US20240285634A1, “COMPOUND AND METHOD FOR TREATING CHEMOTHERAPY-ASSOCIATED GASTROINTESTINAL SIDE EFFECTS” (ONQUALITY PHARMACEUTICALS CHINA LTD., priority 2021, published 2024)

Tested on: Chemotherapeutic agent-caused constipation models of Balb/c mice
Assay: Relieving effect on constipation caused by a chemotherapeutic agent (Examples 202-364)
Assay type: in vivo
Excerpt: Construction of mouse animal models: Chemotherapeutic agent-caused constipation models of Balb/c mice were constructed according to the administration mode and frequency of the chemotherapeutic agent as shown in Table 4. […] Thus, chemotherapeutic agent-caused constipation models of mice are very good models to mimic constipation caused by the chemotherapeutic agent.
Balb/c mice were fed for 1 week, and then divided into groups. The experiment was divided into a control group, a chemotherapeutic agent group, and a group of the compound as shown in Formula I, each of which comprised 10 mice, to perform the administration experiment, for which the administration dosage, mode, time and frequency were shown in Table 4. The control group: being injected or intragastrically administered with the same solvent as that used in the group of the compound as shown in Formula I (the administration mode and time were shown in Table 4), and then being injected or intragastrically administered with the same solvent as that used in the chemotherapeutic agent group (the administration mode was shown in Table 4); the chemotherapeutic agent group: being injected or intragastrically administered with the same solvent as that used in the group of the compound as shown in Formula I (the administration mode and time was shown in Table 4), and then being injected or intragastrically administered with the chemotherapeutic agent (the type, administration mode and dosage were shown in Table 4); the group of the compound as shown in Formula I: being injected or intragastrically administered with the compound as shown in Formula I (the administration mode and time was shown in Table 4), and then being administered with the chemotherapeutic agent (the administration mode and dosage were shown in Table 4).
The feces reduction rate was calculated with reference to the method of Ji Eun Kim (Lab Anim Res. 2016 December; 32(4): 231-240.). Feces reduction rate (%)=(the control group−the chemotherapeutic agent group or the group of the compound as shown in Formula I)/the control group*100%
It is regarded as effective remission when the feces reduction rate of mice in the group of the compound as shown in Formula I is reduced compared with that in the chemotherapeutic agent group.
The feces amount of mice within 3 hours was observed and recorded every day. At the end of the experiment, the number of mice in the group of the compound as shown in Formula I whose feces reduction rate was lower than that of mice in the chemotherapeutic agent group was recorded. Table 4 lists various animal experiment combinations of chemotherapeutic agents and the compound as shown in Formula I, as well as the corresponding experimental results.

For `CN1CCN(c2ccc(Nc3ncc4cc5n(c4n3)C3(CCCCC3)CNC5=O)nc2)CC1` [Compound I, Trilaciclib], the “Relative remission rate (%)” value (Example 202, Fluorouracil (5-Fu) intraperitoneal injection 175 mg/kg single, compound intravenous injection 100 mg/kg, frequency 8, 0.5 h before chemotherapeutic agent, cycle 10 days) was 40%, the “Relative remission rate (%)” value (Example 203, Fluorouracil (5-Fu) intraperitoneal injection 175 mg/kg single, compound intravenous injection 100 mg/kg, frequency 8, 1 h before chemotherapeutic agent, cycle 10 days) was 30% and the “Relative remission rate (%)” value (Example 204, Fluorouracil (5-Fu) intraperitoneal injection 175 mg/kg single, compound intravenous injection 100 mg/kg, frequency 8, 2 h before chemotherapeutic agent, cycle 10 days) was 40%. The “Relative remission rate (%)” value (Example 205, Fluorouracil (5-Fu) intraperitoneal injection 175 mg/kg single, compound intravenous injection 100 mg/kg, frequency 8, 3 h before chemotherapeutic agent, cycle 10 days) was 40%, the “Relative remission rate (%)” value (Example 206, Fluorouracil (5-Fu) intraperitoneal injection 175 mg/kg single, compound intravenous injection 100 mg/kg, frequency 8, 4 h before chemotherapeutic agent, cycle 10 days) was 30% and the “Relative remission rate (%)” value (Example 207, Fluorouracil (5-Fu) intraperitoneal injection 175 mg/kg single, compound intravenous injection 100 mg/kg, frequency 8, 5 h before chemotherapeutic agent, cycle 10 days) was 20%. The “Relative remission rate (%)” value (Example 208, Fluorouracil (5-Fu) intraperitoneal injection 175 mg/kg single, compound intravenous injection 100 mg/kg, frequency 8, 6 h before chemotherapeutic agent, cycle 10 days) was 50%, the “Relative remission rate (%)” value (Example 209, Fluorouracil (5-Fu) intraperitoneal injection 175 mg/kg single, compound intravenous injection 100 mg/kg, frequency 8, 7 h before chemotherapeutic agent, cycle 10 days) was 50% and the “Relative remission rate (%)” value (Example 210, Fluorouracil (5-Fu) intraperitoneal injection 175 mg/kg single, compound intravenous injection 100 mg/kg, frequency 8, 8 h before chemotherapeutic agent, cycle 10 days) was 40%. The “Relative remission rate (%)” value (Example 211, Fluorouracil (5-Fu) intraperitoneal injection 175 mg/kg single, compound intravenous injection 100 mg/kg, frequency 8, 9 h before chemotherapeutic agent, cycle 10 days) was 40%, the “Relative remission rate (%)” value (Example 212, Fluorouracil (5-Fu) intraperitoneal injection 175 mg/kg single, compound intravenous injection 100 mg/kg, frequency 8, 10 h before chemotherapeutic agent, cycle 10 days) was 30% and the “Relative remission rate (%)” value (Example 213, Fluorouracil (5-Fu) intraperitoneal injection 175 mg/kg single, compound intravenous injection 100 mg/kg, frequency 8, 11 h before chemotherapeutic agent, cycle 10 days) was 50%. The “Relative remission rate (%)” value (Example 214, Fluorouracil (5-Fu) intraperitoneal injection 175 mg/kg single, compound intravenous injection 12.5 mg/kg, frequency 8, 12 h before chemotherapeutic agent, cycle 10 days) was 20%, the “Relative remission rate (%)” value (Example 215, Fluorouracil (5-Fu) intraperitoneal injection 175 mg/kg single, compound intravenous injection 25 mg/kg, frequency 8, 12 h before chemotherapeutic agent, cycle 10 days) was 30% and the “Relative remission rate (%)” value (Example 216, Fluorouracil (5-Fu) intraperitoneal injection 175 mg/kg single, compound intravenous injection 50 mg/kg, frequency 8, 12 h before chemotherapeutic agent, cycle 10 days) was 30%. For the same molecule, the “Relative remission rate (%)” value (Example 217, Fluorouracil (5-Fu) intraperitoneal injection 175 mg/kg single, compound intravenous injection 100 mg/kg, frequency 8, 12 h before chemotherapeutic agent, cycle 10 days) was 40%, the “Relative remission rate (%)” value (Example 218, Fluorouracil (5-Fu) intraperitoneal injection 175 mg/kg single, compound intravenous injection 150 mg/kg, frequency 8, 12 h before chemotherapeutic agent, cycle 10 days) was 60% and the “Relative remission rate (%)” value (Example 219, Fluorouracil (5-Fu) intraperitoneal injection 175 mg/kg single, compound intravenous injection 240 mg/kg, frequency 8, 12 h before chemotherapeutic agent, cycle 10 days) was 60%. For the same molecule, the “Relative remission rate (%)” value (Example 220, Fluorouracil (5-Fu) intraperitoneal injection 175 mg/kg single, compound intravenous injection 100 mg/kg, frequency 8, 13 h before chemotherapeutic agent, cycle 10 days) was 40%, the “Relative remission rate (%)” value (Example 221, Fluorouracil (5-Fu) intraperitoneal injection 175 mg/kg single, compound intravenous injection 100 mg/kg, frequency 8, 14 h before chemotherapeutic agent, cycle 10 days) was 40% and the “Relative remission rate (%)” value (Example 222, Fluorouracil (5-Fu) intraperitoneal injection 175 mg/kg single, compound intravenous injection 100 mg/kg, frequency 8, 16 h before chemotherapeutic agent, cycle 10 days) was 50%. The “Relative remission rate (%)” value (Example 223, Fluorouracil (5-Fu) intraperitoneal injection 175 mg/kg single, compound intravenous injection 100 mg/kg, frequency 8, 18 h before chemotherapeutic agent, cycle 10 days) was 60%, the “Relative remission rate (%)” value (Example 224, Fluorouracil (5-Fu) intraperitoneal injection 175 mg/kg single, compound intravenous injection 100 mg/kg, frequency 8, 20 h before chemotherapeutic agent, cycle 10 days) was 60% and the “Relative remission rate (%)” value (Example 225, Fluorouracil (5-Fu) intraperitoneal injection 175 mg/kg single, compound intravenous injection 100 mg/kg, frequency 8, 22 h before chemotherapeutic agent, cycle 10 days) was 30%. The “Relative remission rate (%)” value (Example 226, Fluorouracil (5-Fu) intraperitoneal injection 175 mg/kg single, compound intravenous injection 100 mg/kg, frequency 8, 24 h before chemotherapeutic agent, cycle 10 days) was 30%, the “Relative remission rate (%)” value (Example 227, Fluorouracil (5-Fu) intraperitoneal injection 175 mg/kg single, compound intravenous injection 100 mg/kg, frequency 8, 48 h before chemotherapeutic agent, cycle 10 days) was 0% and the “Relative remission rate (%)” value (Example 228, Fluorouracil (5-Fu) intravenous injection 250 mg/kg single, compound intraperitoneal injection 100 mg/kg single, 0.5 h before chemotherapeutic agent, cycle 10 days) was 30%. The “Relative remission rate (%)” value (Example 229, Fluorouracil (5-Fu) intravenous injection 250 mg/kg single, compound intraperitoneal injection 100 mg/kg single, 1 h before chemotherapeutic agent, cycle 10 days) was 40%, the “Relative remission rate (%)” value (Example 230, Fluorouracil (5-Fu) intravenous injection 250 mg/kg single, compound intraperitoneal injection 100 mg/kg single, 2 h before chemotherapeutic agent, cycle 10 days) was 40% and the “Relative remission rate (%)” value (Example 231, Fluorouracil (5-Fu) intravenous injection 250 mg/kg single, compound intraperitoneal injection 100 mg/kg single, 4 h before chemotherapeutic agent, cycle 10 days) was 60%. The “Relative remission rate (%)” value (Example 232, Fluorouracil (5-Fu) intravenous injection 250 mg/kg single, compound intraperitoneal injection 100 mg/kg single, 6 h before chemotherapeutic agent, cycle 10 days) was 60%, the “Relative remission rate (%)” value (Example 233, Fluorouracil (5-Fu) intravenous injection 250 mg/kg single, compound intraperitoneal injection 100 mg/kg single, 8 h before chemotherapeutic agent, cycle 10 days) was 50% and the “Relative remission rate (%)” value (Example 234, Fluorouracil (5-Fu) intravenous injection 250 mg/kg single, compound intraperitoneal injection 100 mg/kg single, 10 h before chemotherapeutic agent, cycle 10 days) was 50%. For the same molecule, the “Relative remission rate (%)” value (Example 235, Fluorouracil (5-Fu) intravenous injection 250 mg/kg single, compound intraperitoneal injection 100 mg/kg single, 12 h before chemotherapeutic agent, cycle 10 days) was 70%, the “Relative remission rate (%)” value (Example 236, Fluorouracil (5-Fu) intravenous injection 250 mg/kg single, compound intraperitoneal injection 100 mg/kg single, 14 h before chemotherapeutic agent, cycle 10 days) was 40% and the “Relative remission rate (%)” value (Example 237, Fluorouracil (5-Fu) intravenous injection 250 mg/kg single, compound intraperitoneal injection 100 mg/kg single, 16 h before chemotherapeutic agent, cycle 10 days) was 40%. For the same molecule, the “Relative remission rate (%)” value (Example 238, Fluorouracil (5-Fu) intravenous injection 250 mg/kg single, compound intraperitoneal injection 100 mg/kg single, 18 h before chemotherapeutic agent, cycle 10 days) was 50%, the “Relative remission rate (%)” value (Example 239, Fluorouracil (5-Fu) intravenous injection 250 mg/kg single, compound intraperitoneal injection 100 mg/kg single, 20 h before chemotherapeutic agent, cycle 10 days) was 50% and the “Relative remission rate (%)” value (Example 240, Fluorouracil (5-Fu) intravenous injection 250 mg/kg single, compound intraperitoneal injection 100 mg/kg single, 24 h before chemotherapeutic agent, cycle 10 days) was 50%. For the same molecule, the “Relative remission rate (%)” value (Example 287, Irinotecan (CPT-11) intraperitoneal injection 260 mg/kg single, compound intravenous injection 150 mg/kg single, 1 h before chemotherapeutic agent, cycle 8 days) was 40%, the “Relative remission rate (%)” value (Example 288, Irinotecan (CPT-11) intraperitoneal injection 260 mg/kg single, compound intravenous injection 150 mg/kg single, 2 h before chemotherapeutic agent, cycle 8 days) was 50% and the “Relative remission rate (%)” value (Example 289, Irinotecan (CPT-11) intraperitoneal injection 260 mg/kg single, compound intravenous injection 150 mg/kg single, 3 h before chemotherapeutic agent, cycle 8 days) was 50%. The “Relative remission rate (%)” value (Example 290, Irinotecan (CPT-11) intraperitoneal injection 260 mg/kg single, compound intravenous injection 150 mg/kg single, 4 h before chemotherapeutic agent, cycle 8 days) was 40%, the “Relative remission rate (%)” value (Example 291, Irinotecan (CPT-11) intraperitoneal injection 260 mg/kg single, compound intravenous injection 150 mg/kg single, 5 h before chemotherapeutic agent, cycle 8 days) was 30% and the “Relative remission rate (%)” value (Example 292, Irinotecan (CPT-11) intraperitoneal injection 260 mg/kg single, compound intravenous injection 150 mg/kg single, 6 h before chemotherapeutic agent, cycle 8 days) was 40%. For the same molecule, the “Relative remission rate (%)” value (Example 293, Irinotecan (CPT-11) intraperitoneal injection 260 mg/kg single, compound intravenous injection 150 mg/kg single, 7 h before chemotherapeutic agent, cycle 8 days) was 50%, the “Relative remission rate (%)” value (Example 294, Irinotecan (CPT-11) intraperitoneal injection 260 mg/kg single, compound intravenous injection 150 mg/kg single, 8 h before chemotherapeutic agent, cycle 8 days) was 60% and the “Relative remission rate (%)” value (Example 295, Irinotecan (CPT-11) intraperitoneal injection 260 mg/kg single, compound intravenous injection 150 mg/kg single, 9 h before chemotherapeutic agent, cycle 8 days) was 70%. The “Relative remission rate (%)” value (Example 296, Irinotecan (CPT-11) intraperitoneal injection 260 mg/kg single, compound intravenous injection 150 mg/kg single, 10 h before chemotherapeutic agent, cycle 8 days) was 50%, the “Relative remission rate (%)” value (Example 297, Irinotecan (CPT-11) intraperitoneal injection 260 mg/kg single, compound intravenous injection 150 mg/kg single, 11 h before chemotherapeutic agent, cycle 8 days) was 50% and the “Relative remission rate (%)” value (Example 298, Irinotecan (CPT-11) intraperitoneal injection 260 mg/kg single, compound intravenous injection 150 mg/kg single, 12 h before chemotherapeutic agent, cycle 8 days) was 40%. For the same molecule, the “Relative remission rate (%)” value (Example 299, Irinotecan (CPT-11) intraperitoneal injection 260 mg/kg single, compound intravenous injection 150 mg/kg single, 14 h before chemotherapeutic agent, cycle 8 days) was 40%, the “Relative remission rate (%)” value (Example 300, Irinotecan (CPT-11) intraperitoneal injection 260 mg/kg single, compound intravenous injection 150 mg/kg single, 16 h before chemotherapeutic agent, cycle 8 days) was 40% and the “Relative remission rate (%)” value (Example 301, Irinotecan (CPT-11) intraperitoneal injection 260 mg/kg single, compound intravenous injection 150 mg/kg single, 18 h before chemotherapeutic agent, cycle 8 days) was 50%. For the same molecule, the “Relative remission rate (%)” value (Example 302, Irinotecan (CPT-11) intraperitoneal injection 260 mg/kg single, compound intravenous injection 150 mg/kg single, 20 h before chemotherapeutic agent, cycle 8 days) was 50%.
